Data published in PubChem BioAssay AID1259407 (Chemical Carcinogenesis Research Information System (CCRIS), 2018).
The source made the active and inactive calls. No rule for the calls is given here.

Test system: CCRIS mutagenicity, Ames/micronucleus/aberration tests
Assay: CCRIS mutagenicity studies
[1] = Test System: AMES SALMONELLA TYPHIMURIUM, Strain/Indicator: TA100, Metabolic Activation: NONE, Method: PREINCUBATION
[2] = Test System: AMES SALMONELLA TYPHIMURIUM, Strain/Indicator: TA98, Metabolic Activation: NONE, Method: STANDARD PLATE
[3] = Test System: AMES SALMONELLA TYPHIMURIUM, Strain/Indicator: TA98, Metabolic Activation: RAT, LIVER, S-9, AROCLOR 1254, Method: STANDARD PLATE
[4] = Test System: AMES SALMONELLA TYPHIMURIUM, Strain/Indicator: TA100, Metabolic Activation: NONE, Method: STANDARD PLATE
[5] = Test System: AMES SALMONELLA TYPHIMURIUM, Strain/Indicator: TA100, Metabolic Activation: RAT, LIVER, S-9, AROCLOR 1254, Method: STANDARD PLATE
[6] = Test System: AMES SALMONELLA TYPHIMURIUM, Strain/Indicator: TA1535, Metabolic Activation: NONE, Method: STANDARD PLATE
[7] = Test System: AMES SALMONELLA TYPHIMURIUM, Strain/Indicator: TA1535, Metabolic Activation: RAT, LIVER, S-9, AROCLOR 1254, Method: STANDARD PLATE
[8] = Test System: AMES SALMONELLA TYPHIMURIUM, Strain/Indicator: TA1537, Metabolic Activation: NONE, Method: STANDARD PLATE
[9] = Test System: AMES SALMONELLA TYPHIMURIUM, Strain/Indicator: TA1537, Metabolic Activation: RAT, LIVER, S-9, AROCLOR 1254, Method: STANDARD PLATE
[10] = Test System: AMES SALMONELLA TYPHIMURIUM, Strain/Indicator: TA1538, Metabolic Activation: NONE, Method: STANDARD PLATE
[11] = Test System: AMES SALMONELLA TYPHIMURIUM, Strain/Indicator: TA1538, Metabolic Activation: RAT, LIVER, S-9, AROCLOR 1254, Method: STANDARD PLATE
[12] = Test System: AMES SALMONELLA TYPHIMURIUM, Strain/Indicator: TA97, Metabolic Activation: NONE, Method: STANDARD PLATE
[13] = Test System: AMES SALMONELLA TYPHIMURIUM, Strain/Indicator: TA102, Metabolic Activation: NONE, Method: STANDARD PLATE
[14] = Test System: AMES SALMONELLA TYPHIMURIUM, Strain/Indicator: TA97, Metabolic Activation: RAT, LIVER, S-9, AROCLOR 1254, Method: STANDARD PLATE
[15] = Test System: AMES SALMONELLA TYPHIMURIUM, Strain/Indicator: TA102, Metabolic Activation: RAT, LIVER, S-9, AROCLOR 1254, Method: STANDARD PLATE

With `COc1c(Cl)c(Cl)c(Cl)c(Cl)c1Cl` the mutagenic call (Test System: AMES SALMONELLA TYPHIMURIUM, Strain/Indicator: TA98, Metabolic Activation: HAMSTER, LIVER, S-9, AROCLOR 1254 (10%), Method: PREINCUBATION) was “inactive; negative”, the mutagenic call (Test System: AMES SALMONELLA TYPHIMURIUM, Strain/Indicator: TA98, Metabolic Activation: MOUSE, LIVER, S-9, AROCLOR 1254, Method: PREINCUBATION) was “inactive; negative” and the mutagenic call (Test System: AMES SALMONELLA TYPHIMURIUM, Strain/Indicator: TA98, Metabolic Activation: RAT, LIVER, S-9, AROCLOR 1254 (10%), Method: PREINCUBATION) was “inactive; negative”. For the same molecule, the mutagenic call (Test System: AMES SALMONELLA TYPHIMURIUM, Strain/Indicator: TA100, Metabolic Activation: HAMSTER, LIVER, S-9, AROCLOR 1254 (10%), Method: PREINCUBATION) was “inactive; negative”, the mutagenic call (Test System: AMES SALMONELLA TYPHIMURIUM, Strain/Indicator: TA100, Metabolic Activation: MOUSE, LIVER, S-9, AROCLOR 1254, Method: PREINCUBATION) was “inactive; negative” and the mutagenic call [1] was “inactive; negative”. The mutagenic call (Test System: AMES SALMONELLA TYPHIMURIUM, Strain/Indicator: TA100, Metabolic Activation: RAT, LIVER, S-9, AROCLOR 1254 (10%), Method: PREINCUBATION) was “inactive; negative”, the mutagenic call (Test System: AMES SALMONELLA TYPHIMURIUM, Strain/Indicator: TA1535, Metabolic Activation: HAMSTER, LIVER, S-9, AROCLOR 1254 (10%), Method: PREINCUBATION) was “inactive; negative” and the mutagenic call (Test System: AMES SALMONELLA TYPHIMURIUM, Strain/Indicator: TA1535, Metabolic Activation: NONE, Method: PREINCUBATION) was “inactive; negative”. For the same molecule, the mutagenic call (Test System: AMES SALMONELLA TYPHIMURIUM, Strain/Indicator: TA1535, Metabolic Activation: RAT, LIVER, S-9, AROCLOR 1254 (10%), Method: PREINCUBATION) was “inactive; negative”, the mutagenic call (Test System: AMES SALMONELLA TYPHIMURIUM, Strain/Indicator: TA1537, Metabolic Activation: HAMSTER, LIVER, S-9, AROCLOR 1254 (10%), Method: PREINCUBATION) was “inactive; negative” and the mutagenic call (Test System: AMES SALMONELLA TYPHIMURIUM, Strain/Indicator: TA1537, Metabolic Activation: NONE, Method: PREINCUBATION) was “active; positive”. The mutagenic call (Test System: AMES SALMONELLA TYPHIMURIUM, Strain/Indicator: TA1537, Metabolic Activation: RAT, LIVER, S-9, AROCLOR 1254 (10%), Method: PREINCUBATION) was “inactive; negative”, the mutagenic call (Test System: E. COLI, Strain/Indicator: WP2, Metabolic Activation: MOUSE, LIVER, S-9, AROCLOR 1254, Method: PREINCUBATION) was “inactive; negative” and the mutagenic call (Test System: E. COLI, Strain/Indicator: WP2, Metabolic Activation: NONE, Method: PREINCUBATION) was “inactive; negative”. The mutagenic call (Test System: E. COLI, Strain/Indicator: WP2 UVRA, Metabolic Activation: MOUSE, LIVER, S-9, AROCLOR 1254, Method: PREINCUBATION) was “inactive; negative”, the mutagenic call (Test System: E. COLI, Strain/Indicator: WP2 UVRA, Metabolic Activation: NONE, Method: PREINCUBATION) was “inactive; negative” and the mutagenic call (Test System: MOUSE LYMPHOMA, Strain/Indicator: L5178Y (TK+/TK-), Metabolic Activation: NONE, Method: SUSPENSION/PLATE) was “inactive; negative”. The mutagenic call (Test System: MOUSE LYMPHOMA, Strain/Indicator: L5178Y (TK+/TK-), Metabolic Activation: RAT, LIVER, S-9, AROCLOR 1254, Method: SUSPENSION/PLATE) was “active; positive”.
For `COc1ccc([C@@H]2CC(=O)c3c(O)cc(O[C@@H]4O[C@H](CO[C@@H]5O[C@@H](C)[C@H](O)[C@@H](O)[C@H]5O)[C@@H](O)[C@H](O)[C@H]4O)cc3O2)cc1O`, the mutagenic call [2] was “inactive; negative”, the mutagenic call [3] was “inactive; negative” and the mutagenic call [4] was “inactive; negative”. The mutagenic call [5] was “inactive; negative”, the mutagenic call [6] was “inactive; negative” and the mutagenic call [7] was “inactive; negative”. The mutagenic call [8] was “inactive; negative”, the mutagenic call [9] was “inactive; negative” and the mutagenic call [10] was “inactive; negative”. The mutagenic call [11] was “inactive; negative”, the mutagenic call (Test System: E. COLI, Strain/Indicator: WP2, Metabolic Activation: NONE, Method: STANDARD PLATE) was “inactive; negative” and the mutagenic call (Test System: E. COLI, Strain/Indicator: WP2, Metabolic Activation: RAT, LIVER, S-9, AROCLOR 1254, Method: STANDARD PLATE) was “inactive; negative”.
With `O=C(Cl)OCC1c2ccccc2-c2ccccc21` the mutagenic call [2] was “inactive; negative”, the mutagenic call [3] was “inactive; negative” and the mutagenic call [4] was “inactive; negative”. The mutagenic call [5] was “inactive; negative”, the mutagenic call [6] was “inactive; negative” and the mutagenic call [7] was “inactive; negative”. For the same molecule, the mutagenic call [8] was “inactive; negative” and the mutagenic call [9] was “active; positive”.
With `c1ccc(CSSCc2ccccc2)cc1` the mutagenic call [12] was “inactive; negative”, the mutagenic call (Test System: AMES SALMONELLA TYPHIMURIUM, Strain/Indicator: TA97, Metabolic Activation: S-9, Method: STANDARD PLATE) was “inactive; negative” and the mutagenic call [2] was “inactive; negative”. The mutagenic call (Test System: AMES SALMONELLA TYPHIMURIUM, Strain/Indicator: TA98, Metabolic Activation: S-9, Method: STANDARD PLATE) was “inactive; negative”, the mutagenic call [4] was “inactive; negative” and the mutagenic call (Test System: AMES SALMONELLA TYPHIMURIUM, Strain/Indicator: TA100, Metabolic Activation: S-9, Method: STANDARD PLATE) was “inactive; negative”. For the same molecule, the mutagenic call [13] was “active; positive” and the mutagenic call (Test System: AMES SALMONELLA TYPHIMURIUM, Strain/Indicator: TA102, Metabolic Activation: S-9, Method: STANDARD PLATE) was “active; positive”.
`Cc1c2ccccc2c(C)c2c3c(ccc12)C(=O)C(=O)C=C3` was tested, and the mutagenic call (Test System: AMES SALMONELLA TYPHIMURIUM, Strain/Indicator: TA97A, Metabolic Activation: NONE, Method: PREINCUBATION) was “inactive; negative”, the mutagenic call (Test System: AMES SALMONELLA TYPHIMURIUM, Strain/Indicator: TA98, Metabolic Activation: NONE, Method: PREINCUBATION) was “inactive; negative” and the mutagenic call [1] was “inactive; negative”. The mutagenic call (Test System: AMES SALMONELLA TYPHIMURIUM, Strain/Indicator: TA102, Metabolic Activation: NONE, Method: PREINCUBATION) was “inactive; negative” and the mutagenic call (Test System: AMES SALMONELLA TYPHIMURIUM, Strain/Indicator: TA104, Metabolic Activation: NONE, Method: PREINCUBATION) was “inactive; negative”.
In the case of `O=S(=O)(O)O.[NH-]CC1(C[NH-])CCCCC1.[Pt+2]`, the mutagenic call (Test System: CHINESE HAMSTER, Strain/Indicator: V-79/6-THIOGUANINE (HGPRT), Metabolic Activation: NONE, Method: STANDARD PLATE) is reported as “active; positive”.
For `Clc1ccccn1`, the mutagenic call [12] was “inactive; negative”, the mutagenic call [14] was “active; positive” and the mutagenic call [2] was “inactive; negative”. The mutagenic call [3] was “active; positive”, the mutagenic call [4] was “inactive; negative” and the mutagenic call [5] was “active; positive”. The mutagenic call [13] was “inactive; negative”, the mutagenic call [15] was “active; positive” and the mutagenic call (Test System: MOUSE LYMPHOMA, Strain/Indicator: L5178Y (TK+/TK-), Metabolic Activation: NONE) was “active; positive”. For the same molecule, the mutagenic call (Test System: MOUSE LYMPHOMA, Strain/Indicator: L5178Y (TK+/TK-), Metabolic Activation: RAT, LIVER, S-9, AROCLOR 1254) was “active; positive”.
In the case of `COc1cc(-c2oc3cc(O)cc(O)c3c(=O)c2O)ccc1O`, the mutagenic call [12] is reported as “inactive; negative”, the mutagenic call [14] is reported as “inactive; negative” and the mutagenic call [2] is reported as “inactive; negative”. For the same molecule, the mutagenic call [3] was “inactive; negative”, the mutagenic call [4] was “inactive; negative” and the mutagenic call [5] was “inactive; negative”. The mutagenic call [13] was “inactive; negative”, the mutagenic call [15] was “inactive; negative” and the mutagenic call [6] was “inactive; negative”. The mutagenic call [7] was “inactive; negative”, the mutagenic call [10] was “inactive; negative” and the mutagenic call [11] was “inactive; negative”.
